The source of these data is US20110086089A1, “USE OF P27KIP1 FOR THE PREVENTION AND TREATMENT OF HEART FAILURE” (UNIVERSITY HEALTH NETWORK, priority 2008, published 2011).

In assay [1] the test system is p27 degradation in cardiomyocytes. The assay is described as follows: Ang II-triggered p27 degradation / p27 half-life in cardiomyocytes. The following applies: for Ang II-triggered decrease in p27 protein levels / p27 destabilization: cardiomyocytes + Ang II, lactacystin 10 μM 30 min pre-treatment, DMAT 30 minutes prior, lentivirus 72 h; for p27 degradation: proteasome inhibitors, conditions not given. Type of assay: cell-based, rat. On the procedure:
FIG. 3 is a series of graphs, blots and cell stainings showing essential function of CK2-alpha-prime-mediated p27 degradation for cardiomyocyte hypertrophy. […] Cells were transduced with TAT-conjugated wt.p27 (2.5 μg/ml), phosphorylation resistant p27deltaPi, or phosphomimicking mutant p27.S83D/T187D for 1 h before Ang II addition for 4 h. Isotypic anti-CK2-alpha-prime immunocomplex kinase assays were performed employing histone H1 substrate. Input levels of transduced TAT-fusion proteins were determined prior to Ang II addition by immunoblotting of total cell extracts. Mean±s.e.m., n=3. *P<0.01 vs unstimulated cells. **P<0.01 vs Ang II. #P<0.01. endog, endogenous. (B) Pharmacological inhibition of the 26S-proteasome abrogates Ang II-triggered p27 degradation. […] Alternatively, lactacystin-treated cardiomyocytes were transduced with TAT-conjugated CK2-alpha-prime or p27deltaPi (2.5 μg/ml) for 1 h prior to Ang II addition. Anti-CK2-alpha-prime immunocomplex kinase assays were performed employing histone H1 as substrate. Western blots of total cell extracts (50 μg/lane) were probed with antibodies as indicated on the left. (C) Inhibition of CK2-alpha-prime prevents Ang II-induced degradation of p27. […] Cells were then chased with excess cold methionine in the presence of Ang II and cycloheximide (100 μg/ml) to block protein synthesis for the indicated timepoints. Alternatively, cells were incubated with DMAT for 30 minutes prior to Ang II stimulation. p27 was immunoprecipitated employing anti-p27 covalently linked to protein A-agarose. Aliquots of total cell extracts were resolved on SDS-PAGE, transferred to nitrocellulose-membranes, autoradiographed (right panel), and quantified with ImageJ software (left panel). (B, C) One typical result of two independent experiments is shown. (D) Subcellular localization of p27 and S83 phosphorylated p27 in Ang II-stimulated cardiomyocytes. Cells were transduced with lentiviruses encoding siCK2-alpha-prime or siControl for 72 h prior to Ang II treatment for the indicated timepoints. […] De novo protein synthesis was determined by in vivo labeling of cardiomyocytes with [^35S]methionine (right panel). Cell size was determined by indirect immunofluorescence microscopy employing anti-tropomyosin staining and ImageJ. Expression levels of endogenous CK2-alpha-prime and p27 were determined by immunoblotting of total cell extracts employing specific antibodies as indicated. Ectopic SR.CK2-alpha-prime and SR.p27 were detected using anti-His. […]
For metabolic labeling, cardiomyocytes were pulsed-labeled with 100 μCi/ml [^35S]methionine/cysteine (1000 Ci/mmol; EasyTag, NEN) for 2 h in methionine/cysteine-deficient medium (DME, ICN). […] The amount of incorporated radioactive label was determined with ImageJ software. […]

In assay [2] the test system is p27 phosphorylation at S83 and T187 in cardiomyocytes. The assay is described as follows: p27 phosphorylation at S83 and T187 in Ang II-treated cardiomyocytes (Western blot). Type of assay: cell-based, rat. The following applies: Ang II 4 h; lentiviruses 72 h; DMAT 20 μM pre-incubated 30 min; TAT-conjugated CK2-alpha-prime 2.5 μg/ml 1 h. On the procedure: FIG. 2 is a series of graphs and blots showing Ang II triggers CK2-alpha-prime-dependent phosphorylation of p27 on S83 and T187 in cardiomyocytes. (A) p27 is a substrate of CK2-alpha-prime. […] In vitro kinase assays employing recombinant wt.p27 (1 μg) or phosphorylation site mutants of p27 as substrates were incubated with recombinant CK2-alpha-prime/beta (200 ng). Aliquots of the reaction mixtures were resolved on SDS-PAGE, electrotransferred to nitrocellulose membranes, and the amount of incorporated radioactive [^32P}-label into p27 was quantified with a PhosphorImager and ImageJ software. Individual membranes were probed with anti-CK2-alpha-prime, anti-p27 (input), or phosphorylation site specific antibodies to p27. […] Samples were resolved on SDS-PAGE, transferred to nitrocellulose-membranes, and the amount of incorporated radioactive label into histones was quantified with a PhosphorImager and ImageJ. The input amount of each CK2-alpha-prime and p27 protein used in the kinase reaction mixtures was monitored by immunoblot analysis employing anti-His. […] Biochemically fractionated extracts corresponding to 4×10^5 cells per lane were analyzed by immunoblotting employing antibodies as indicated on the left. […]
(In general: Immunoblotting shows a protein as a band on a membrane.)

A further assay concerns WT mice. The assay is described as follows: Reversal of established Ang II-dependent cardiac hypertrophy (16 days infusion, injections from day 8). To be noted: daily i.p. injections 20 mg/kg initiated at day 8. Type of assay: in vivo. From the text: FIG. 10 is the experimental treatment protocol. To examine the therapeutic effect of p27 on established cardiac hypertrophy, p27 injections were initiated at 8 days after Ang II-infusion.
To examine the effect of transduced p27 on established cardiac hypertrophy, mice were chronically infused with Ang II for 16 days and intraperitoneally injected recombinant TAT-conjugated p27ΔPi and beta-galactosidase (β-Gal) proteins starting from day 8. After 16 days of Ang II-infusion, the heart/body weight ratio were increased by 45% compared to saline-infused controls (FIG. 11B; group 7 vs. group 6). […] Transduced p27ΔPi regressed the increase in heart size by 47% as compared to β-Gal control injections (group 3 vs group 4). In Ang II-infused mice treated with p27ΔPi values of left ventricular posterior wall and interventricular septum thickness, LVEDD, LVESD, FS and EF were not significant different compared to saline-infused mice. Thus, p27 can reverse established compensated cardiac hypertrophy without exerting any deleterious effect on cardiac function.
Spontaneously beating cardiomyocytes from heart ventricles of neonatal rats were cultured and subjected to treatment with angiotensin II (Ang II). DMAT (2-dimethylamino-4,5,6,7-tetrabromo-1H-benzimidazol), DMSO, lactacystin and LLM were obtained from Calbiochem. Ang II was purchased from Sigma. Animal usage was in accordance with approved institutional animal care guidelines. Age-matched male WI C57BL/6 and p27^−/− mice were used in this study. For results shown in FIGS. 1 to 9: Ang II was chronically infused subcutaneously by osmotic pumps (model 2000, Alzet) at a dose of 1.4 μg/kg per minute for 14 days. TAT.proteins (10 mg/kg) were injected intraperitoneally once daily for 14 days. For results shown in FIGS. 10 to 12: Ang II was chronically infused subcutaneously by osmotic pumps (model 2000, Alzet) at a dose of 0.7 μg/kg per minute for 16 days. TAT.proteins (20 mg/kg) were injected intraperitoneally once daily for 8 days starting at day 8. Thoracic aortic banding (TAB) and pressure gradient measurements were performed as described^39.
After fixation in paraformaldehyde (4% in PBS, pH 7.4), a transverse midsection (3 μm thickness) was stained with Alexa Fluor® 488-conjugated wheat germ agglutinin for cross sectional measurements. Cardiomycoyte area was determined by planimetry employing ImageJ software. A total of 200 cells were counted in each group.

For `CN(C)c1nc2c(Br)c(Br)c(Br)c(Br)c2[nH]1` [DMAT, 2-dimethylamino-4,5,6,7-tetrabromo-1H-benzimidazol, reference compound], the “Ang II-triggered decrease in p27 protein levels / p27 destabilization” value in assay [1] is “prevented p27 destabilization”. For the same compound, in assay [2], the “S83/T187 phosphorylation of p27 in cardiomyocytes” value was “abolished”.

Consider `CC(C)C[C@H](NC(=O)[C@H](Cc1ccccc1)NC(=O)c1cnccn1)B(O)O` [PS-341], for which the p27 degradation entry in assay [1] is on record as “inhibit p27 degradation”.

Turning to `CC(=O)N[C@@H](CSC(=O)[C@]1([C@@H](O)C(C)C)NC(=O)[C@H](C)[C@@H]1O)C(=O)O` [lactacystin], the “Ang II-triggered decrease in p27 protein levels / p27 destabilization” value in assay [1] was “sensitive to proteasome inhibition”.

For “TAT-β-Gal: recombinant TAT-conjugated beta-galactosidase, control injections”, the Heart weight in the assay with WT mice (Ang II infusion 16 days (0.7 μg/kg per minute)) is given as 159 ± 7.3 mg. Moreover, in the assay with WT mice (Ang II infusion 16 days), the FS is reported as 44 ± 1.6 %, the Heart weight/body weight came to 6.9 ± 0.2 mg/g, the IVSD was determined as 1.4 ± 0.1 mm and the LVEDD was found to be 3.8 ± 0.1 mm. For the same compound, in the assay on WT mice (Ang II infusion 16 days), the LVEF is on record as 78 ± 3.7 %, the LVESD was 2.7 ± 0.2 mm and the PWD was 1.4 ± 0.1 mm.

For alpha-methylomuralide, the p27 degradation entry in assay [1] is “inhibit p27 degradation”.
